# Legend:
# angiotensin II receptor = assay: Angiotensin II Receptor Binding Assay ([3H] angiotensin II binding inhibition); conditions: [3H] angiotensin II ligand; 60 minutes, 25° C.; test concentration not given
# Description: In accordance with the procedure disclosed in Chiu, A. T. et al., Eur. J. Pharm., 157, 13(1981), a ligand marked with a radioisotope was reacted with an angiotensin II receptor and the reactant was filtered with a glass fiber to remove unreacted ligand. After washing the filter, the amount of the remaining isotope was measured to determine the binding activity of the ligand, as described below in detail.
# Sprague-Dawley rats and Wistar rats of 250 to 350 g(from The Korea Research Institute of Chemical Technology) were tested and the test procedures were carried out at 4° C., unless otherwise specified. Adrenal gland was separated from the Sprague-Dawley rats(liver, in the case of Wistar rats) into cortex and medulla. The separated adrenal cortex and medulla were washed with a sucrose buffer solution (0.2M sucrose, 1 mM EDTA, 10 mM Tris, pH 7.2) and homogenized in the same buffer solution by using a Teflon pestle and a Brinkmann homogenizer. The homogenates were centrifuged at 3,000 Xg for 10 minutes to remove precipitates and further centrifuged at 12,000 Xg for 13 minutes. The final supernatants were centrifuged at 102,000 Xg for 1 hour to obtain precipitates, which were washed with a Tris buffer solution(50 mM Tris, 5 mM MgCl2, pH 7.2) and re-centrifuged at 102,000 Xg for 1 hour. The resulting precipitates were immediately processed at the following step or stored at -70° C.
# The precipitates were suspended in a Tris buffer solution. The amount of protein was determined by using a Bio-Rad DC protein analyzing kit and the protein concentration was adjusted to the amounts of: 0.2 to 0.3 mg/ml(Sprague-Dawley rat: adrenal cortex), 1.5 to 2.0 mg/ml(Sprague-Dawleyrat: adrenal medulla), and 1.5 to 2.0 mg/ml(Wistar rat: liver). To the suspension, bovine serum albumin(BSA) was added to a concentration of 0.25 wt % and the resultant was immediately processed at the following step or stored at -70° C.
# (ii) Measurement of angiotensin II receptor binding capacity 50 μl(based on ligand) of [^3 H] angiotensin II(NEN, NET-446) and 10 μl of each of the test compounds with various concentrations were added to the buffer solution(50 mM Irris(pH 7.2), 5 mM MgCl2, 0.25% BSA) to adjust the final volume to be 0.5 ml. 100 μl of the receptor suspension was added thereto and the resulting solution was reacted for 60 minutes while stirring in a water bath at 25° C. 3 ml of cold buffer solution for analysis was added to cease the reaction. The isotope which was bound to the receptor was isolated from the resultant by using Brandel Cell Harvester System with Whatman glass fiber GF/C. After washing the filter, the radioactivity of the filter was determined by using a liquid scintillation counter. Binding inhibition(%) of the test compound was calculated as follows:
# Binding Inhibition(%)=[{(T--B)-(S--B)}/(T--B)]×100
# wherein T is cpm of the reaction product untreated with the test compound, S is cpm of the reaction product treated with the test compound, and B is cpm of blank test.
# renal hypertensive rat [1] = assay: Blood pressure lowering effect on oral administration to rats at several doses; assay type: in vivo, male Sprague-Dawley rats
# Excerpt: (§1) To induce renal hypertension, left renal artery of 4 week-old male Sprague-Dawley rats(from The Korea Research Institute of Chemical Technology) was ligated. The rats were anesthetized with ether and the surgical region on the left abdomen of the rat was shaved, disinfected, and then incised about 1 cm vertically. The renal artery near abdominal aorta was isolated carefully from surrounding tissues and veins, and then ligated completely with a suture(4/0 sterile surgical silk). The muscular strata and skin of the surgical area were sutured with a suture(4/0 sterile surgical silk). The surgical region was disinfected to prevent infection and thereafter, 200 to 250 mg/Kg/day of cephazolin sodium was injected intramuscularly for 2 days. 6 to 8 days after the ligation, rats showing systolic pressure of more than 180 mmHg were selected for renal hypertension test. The blood pressure was determined by a tail-cuff method from the tail under unanesthetized condition(Gerold, M. et al., Arzneimittrel-Forsch, 18, 1285(1968)).
# (§2) Each of the compounds to be tested was administered intravenously or orally into the renal hypertensive rat. The blood pressure of the rats was determined by direct method(Chiu, A. T. et al., J. Pharmacol. Exp. Ther. 250, 867(1989)) using a catheter. The rats were anesthetized with ketamine hydrochloride(125 mg/kg, i.p.) and a catheter was filled with saline and inserted into a carotid artery and carotid vein. The surgical area was sutured with a metal clip. The rats were relaxed at least 3 hours and the catheter in the carotid artery was adapted to an isotec pressure transducer to determine their blood pressure and heart rate with a physiograph(Linearcorder WR3310). After the blood pressure was stabilized, the test compound was administered intravenously or orally. For intravenous administration, the administered volume and washing volume were 1.0 ml/Kg and 0.2 ml, respectively. The blood pressure and heart rate were measured in regular intervals up to 24 hours after the administration of the test compound and compared with those measured after the administration of the control compound Losartan.
# (§3) The test compound was dissolved in 0.05N KOH for intravenous administration and suspended in Tween 80 for oral administration.
# (iii) Blood pressure lowering effect The present compounds, Losartan(Dup 753) and the Merck compound were administrated orally to rats in 10, 3, 1, 0.3 and 0.1 mg/kg under the same condition as in (ii) and the blood pressure lowering effect was determined.
# renal hypertensive rat [2] = assay: Blood pressure lowering effect in renal hypertension (renal hypertensive rats, intravenous or oral); assay type: in vivo, male Sprague-Dawley rats; conditions: 1 mg, read-out: Maxium Blood Pressure Lowering Effect(%)
# Excerpt: as §1, §2, §3
# renal hypertensive rats = assay: Duration of action in renal hypertensive rats; assay type: in vivo, male Sprague-Dawley rats; conditions: oral
# Excerpt: as §1, §2
# The present(Example 28) and control(Merck) compounds were tested using the hypertensive rats of test 2(i). 1 mg or 3 mg/kg of each compound was administered orally and blood pressure lowering effect with time was determined to measure the duration of action of the compounds.
# unanesthetized dogs = assay: Blood pressure lowering effect in unanesthetized dogs (furosemide treated); assay type: in vivo, dog; set-up: Maximum blood pressure lowering effect in a dog: unit not given here; conditions: oral; for Blood pressure variation with time: dogs, 1.0 mg
# Description: A number of dogs were fed freely in a feeding room and those weighing 7 to 12 kg in good health were selected regardless of their gender.
# (§4) The test dogs were anesthetized with 30 mg/kg of pentobarbital sodium by intravenous injection and the left femoral artery and femoral vein were separated carefully. Silicone catheter, specially prepared and filled with saline treated with heparin(1,000 IU/ml), was cannulated into the blood vessels. After the surgery, the dogs were constrained to measure their blood pressure continuously with Gould 2000 physiograph adapted to a Grass P23 XL pressure transducer; and their heart rates were monitored with ECG/Biotacho amplifier. The dogs were tested at least 2 days after the surgery.
# (§5) 10 mg/kg of furosemide was injected intramuscularly 18 hours(in case of intravenous injection, 2 hours) before the beginning of the test (administration of the test compound) to improve the activity of renin in blood plasma. After the injection of furosemide, neither food nor water was provided. The test compound was suspended in Tween 80 and administered in an amount of 20 mg/kg orally. The blood pressure and heart rate were measured up to 8 hours after the administration of each test compound.
# The maximum blood pressure lowering effect of the present compounds and the control compounds were determined in different amounts of administration using the same method as […]
# [3] = Metabolite analysis (enzyme digestion test); assay type: in vitro ADME, male rats; conditions: rat liver microsome and NADPH, 1 hour, 37° C., HPLC
# Description: Enzyme digestion test was executed in order to detect the metabolite of the test compound in vivo.
# A liver microsome and NADPH system of male rats were added to each of the present compound(Example 8) and the control compound(Merck), and the mixture was incubated for 1 hour at 37° C. The resultant was extracted with methanol or dichloromethane, and, thereafter, the organic layer was evaporated to obtain a residue. The residue was analyzed using high pressure liquid chromatography.
# [4] = tested on: furosemide-administered dogs; assay: Duration of action in furosemide-administered dogs; assay type: in vivo, dog; conditions: 0.33 mg, per os
# Description: as §4
# as §5, with “The test compound was suspended in Tween 80 and administered in an amount of 20 mg/kg orally.” left out
# The compound of Example 8 and the Merck compound were administered orally to the furosemide-administrated dogs as in test 3(i), and blood pressure lowering effect was measured with time.
structure (smiles),measurement,setting,value
"CCCCc1nc2c(C)c(-c3ccccc3)c(C(OC)OC)nc2n1Cc1ccc(-c2ccccc2-c2nnn[nH]2)cc1 [Example 28, 2-butyl-5-dimethoxymethyl-6-phenyl-7-methyl-3-[2'-(1H-tetrazol-5-yl)-biphenyl-4-ylmethyl]-3H-imidazo[4,5-b]pyridine]",Binding Inhibition(%),angiotensin II receptor,50.5%
same,blood pressure lowering effect,renal hypertensive rat [1]; 0.3 mg/kg,13%
same,blood pressure lowering effect,renal hypertensive rat [1]; 1 mg/kg,47%
same,blood pressure lowering effect compared with the Merck compound,renal hypertensive rat [1]; Table 2,far superior effect
same,change in vivo at 1 mg,renal hypertensive rat [2],-47%
same,duration of action compared with the Merck compound,renal hypertensive rats; 1 mg/kg versus Merck compound 3 mg/kg,far longer duration of action
same,blood pressure lowering effect with time,"renal hypertensive rats; 1 mg/kg, 0 min",0%
same,blood pressure lowering effect with time,"renal hypertensive rats; 1 mg/kg, 10 min",-16%
same,blood pressure lowering effect with time,"renal hypertensive rats; 1 mg/kg, 20 min",-17%
same,blood pressure lowering effect with time,"renal hypertensive rats; 1 mg/kg, 30 min",-18%
same,blood pressure lowering effect with time,"renal hypertensive rats; 1 mg/kg, 60 min",-21%
same,blood pressure lowering effect with time,"renal hypertensive rats; 1 mg/kg, 90 min",-34%
same,blood pressure lowering effect with time,"renal hypertensive rats; 1 mg/kg, 120 min",-33%
same,blood pressure lowering effect with time,"renal hypertensive rats; 1 mg/kg, 240 min",-46%
same,blood pressure lowering effect with time,"renal hypertensive rats; 1 mg/kg, 360 min",-47%
same,blood pressure lowering effect with time,"renal hypertensive rats; 1 mg/kg, 1320 min",-25%
same,blood pressure lowering effect with time,"renal hypertensive rats; 1 mg/kg, 1440 min",-28%
same,Maximum blood pressure lowering effect in a dog,unanesthetized dogs; 0.1 mg/kg,9
same,Maximum blood pressure lowering effect in a dog,unanesthetized dogs; 0.3 mg/kg,18
same,Maximum blood pressure lowering effect in a dog,unanesthetized dogs; 1 mg/kg,33
same,Blood pressure variation with time,unanesthetized dogs; 0.5 hr,-3.3%
same,Blood pressure variation with time,unanesthetized dogs; 1 hr,-18.9%
same,Blood pressure variation with time,unanesthetized dogs; 2 hr,-27.7%
same,Blood pressure variation with time,unanesthetized dogs; 4 hr,-33.3%
same,Blood pressure variation with time,unanesthetized dogs; 6 hr,-29.5%
same,Blood pressure variation with time,unanesthetized dogs; 8 hr,-27.1%
"CCc1nc2c(C)cc(C)nc2n1Cc1ccc(-c2ccccc2-c2nnn[nH]2)cc1 [Merck compound, reference compound]",blood pressure lowering effect,renal hypertensive rat [1]; 3 mg/kg,40%
same,blood pressure lowering effect with time,"renal hypertensive rats; 3 mg/kg, 0 min",0%
same,blood pressure lowering effect with time,"renal hypertensive rats; 3 mg/kg, 10 min",-15%
same,blood pressure lowering effect with time,"renal hypertensive rats; 3 mg/kg, 20 min",-27%
same,blood pressure lowering effect with time,"renal hypertensive rats; 3 mg/kg, 30 min",-28%
same,blood pressure lowering effect with time,"renal hypertensive rats; 3 mg/kg, 60 min",-26%
same,blood pressure lowering effect with time,"renal hypertensive rats; 3 mg/kg, 90 min",-28%
same,blood pressure lowering effect with time,"renal hypertensive rats; 3 mg/kg, 120 min",-25%
same,blood pressure lowering effect with time,"renal hypertensive rats; 3 mg/kg, 240 min",-40%
same,blood pressure lowering effect with time,"renal hypertensive rats; 3 mg/kg, 360 min",-36%
same,blood pressure lowering effect with time,"renal hypertensive rats; 3 mg/kg, 1320 min",-35%
same,blood pressure lowering effect with time,"renal hypertensive rats; 3 mg/kg, 1440 min",-40%
same,blood pressure lowered,"renal hypertensive rats; 3 mg/kg, time in minutes not given",-40%
same,metabolite from the enzymatic digestion,[3],has a metabolite
same,blood pressure lowering effect with time,[4]; 0 min,0.0%
same,blood pressure lowering effect with time,[4]; 10 min,-5.0%
same,blood pressure lowering effect with time,[4]; 20 min,-12.2%
same,blood pressure lowering effect with time,[4]; 30 min,-14.4%
same,blood pressure lowering effect with time,[4]; 60 min,-20.1%
same,blood pressure lowering effect with time,[4]; 90 min,-24.4%
same,blood pressure lowering effect with time,[4]; 120 min,-19.1%
same,blood pressure lowering effect with time,[4]; 150 min,-24.2%
same,blood pressure lowering effect with time,[4]; 180 min,-18.9%
same,blood pressure lowering effect with time,[4]; 210 min,-17.0%
same,blood pressure lowering effect with time,[4]; 240 min,-17.0%
same,blood pressure lowering effect with time,[4]; 270 min,-13.4%
same,blood pressure lowering effect with time,[4]; 300 min,-14.9%
same,blood pressure lowering effect with time,[4]; 330 min,-15.6%
same,blood pressure lowering effect with time,[4]; 360 min,-15.6%
same,blood pressure lowering effect with time,[4]; 390 min,-11.4%
same,blood pressure lowering effect with time,[4]; 420 min,-10.7%
same,blood pressure lowering effect with time,[4]; 450 min,-11.4%
same,blood pressure lowering effect with time,[4]; 480 min,-13.8%
same,Maximum blood pressure lowering effect in a dog,unanesthetized dogs; 0.1 mg/kg,20
same,Maximum blood pressure lowering effect in a dog,unanesthetized dogs; 0.3 mg/kg,24

# — US5849753A, “Pyridyl imidazole derivatives and processes for the preparation thereof” (Korea Research Institute of Chemical Technology, priority 1994, dated 1998)
